Consider 21 molecules from US8541628B2, “Complex cationic lipids having quaternary nitrogens therein” (Vical Incorporated, priority 1995, dated 2013).

“Also recorded” adds a separate entry of the source. Bounds are passed on as bounds.

For one experiment, the system named is murine B16 tumor cells. The experiment can be described thus: Intraperitoneal tumor assay (CAT DNA, CAT activity in tumors). The settings on record: 0.5 mg CAT DNA i.p., 10:1 molar ratio of cytofectin:DNA, tumors two days later, FIG. 5; for CAT expression in tumor cells: control DNA alone. The class given is in vivo, C57/B16 mice. Here is the method: Two hundred thousand murine B16 tumor cells in 500 μl RPMI were injected intraperitoneally into C57/B16 mice at day 0. At day 7-14, mice received intraperitoneal injections of 0.5 mg CAT DNA in 1.5 ml saline containing cytofectin at a 10:1 molar ratio of cytofectin:DNA. The cationic lipids used were DMRIE, GAP-DMRIE, GAP-DLRIE, and GMU-DLRIE. Two days later, tumors were collected, extracted and assayed for CAT activity as described in Example 7. The CAT activities observed with the cytofectin formulations is compared to a control receiving DNA alone in FIG. 5. […] CAT activity was greatest in cells transfected with DMRIE.

The test system of the next experiment is COS7 monkey kidney cells. Description: In vitro transfection of COS7 cells (pRSV lacZ, β-galactosidase expression; DMRIE as reference standard). The class given is cell-based. The following applies: for Activity Cos7: cytofectin activity relative to DMRIE, comparison symbols, key not given. On the procedure:
(§1) Solutions of a DMRIE or GMU-DMRIE in chloroform were prepared on a weight to volume (w/v) basis. Aliquots of cationic lipid and neutral lipid (when used) were transferred aseptically to sterile vials in amounts calculated to provide the relative and absolute lipid concentrations desired upon reconstitution with 1 ml of aqueous vehicle. Bulk chloroform was removed with a stream of dry nitrogen, and the vials were treated with high vacuum overnight to remove any residual solvent.
(§2) Plasmid DNA at 5 mg/ml of phosphate buffered saline (PBS) as well as the dried, formulated cytofectin-neutral lipid mixture were suspended in OPTIMEM™ (Gibco BRL) and mixed together in 96 well plates at the desired mass/molar ratio as indicated in the Tables. The DNA-lipid complexes were added to the cells within 2 hours after mixing.
(§3) All cells were passaged 1:5 to 1:10 in 10% fetal bovine serum (FBS) and Dulbecco's Modified Eagles medium (DMEM). All cells were expanded through 10 doubling passages upon receipt and aliquots were stored frozen. Upon re-expansion, all cells were used for transfection studies before another 10 passages.
(§4) On day 0, 20,000 cells in 100 microliters 10% FEBS/90% DMEM were seeded into each well of 96-well culture plates (Nunc) and cultured overnight in a 5% CO2 incubator at 37° C. On Day 1, the medium was aspirated carefully without dislodging cells, and 100 microliters of GMU-DMRIE/pRSV lacZ/DOPE in serum-free OPTIMEM™ (Gibco BRL) was added. DMRIE was used as a reference standard. The lacZ gene encodes the enzyme β-galactosidase which can be assayed colorimetricaly. The cationic lipid:DOPE ratios varied for each well. After 4 hours of culture, 50 microliters 30% FBS/70% OPTIMEM™ was added to each well. On Day 2, each well received 100 microliters 10% FEBS/90% OPTIMEM™. On Day 3, the medium was removed and 50 microliters lysis buffer (0.1% Triton-X100 in 250 mM Tris, pH 8.0) was added and the plates were stored at […] for at least 20 hours.

Experiment [1] concerns influenza nuclear protein (NP) antibody titers. The class given is in vivo, Balb/c mice. The following applies: cytofectin:DOPE 1:1, pDNA-phosphate/cytofectin 4:1, serum at 6 weeks, FIG. 6; for activity in NP antibody assay compared with naked DNA alone: 10 μgr pDNA per animal, day 0 and 3 weeks.
Experiment [2] relates to C2C12 mouse myoblast muscle cells. Description: In vitro transfection of C2C12 cells (pRSV lacZ, β-galactosidase expression; DMRIE as reference standard). Type of experiment: cell-based. The following applies: for Activity C2C12: cytofectin activity relative to DMRIE, comparison symbols, key not given. Here is the method: as §1, §2, §3, §4
The next experiment has as its system BF16F10 melanoma tumors. The experiment can be described thus: Subcutaneous melanoma tumor model (intratumoral cytofectin/CAT plasmid complex, CAT activity). The settings on record: intratumoral injection; tumors collected after 48 hours; FIG. 7. Type of experiment: in vivo, BALB/C mice. On the procedure: Tumors are prepared by injecting a suspension of tumor cells subcutaneously on the side of a mouse strain which is compatible with the specific tumor type. The tumors are periodically measured. Once they have reached a size suitable for injection, the tumor volume is approximated based on the measured diameter assuming a spherical tumor. A complex of the cytofectin to be evaluated with a plasmid encoding a reporter gene in a volume of saline equal to the volume of the tumor to be treated is then injected at a flow rate optimized for the particular tumor type. After an appropriate time, the tumors are collected, frozen, then ground up. The reporter gene product is subsequently extracted and the quantity which was expressed is determined using extraction and assay conditions appropriate for the particular gene product being used. A variety of tumor types may be evaluated using this general technique, and different reporter genes are more or less appropriate depending on the tumor type. A specific example of this assay involving melanoma tumors is provided in Example 14 below.
BF16F10 melanoma tumors are propagated in 90% RPMI 1640/10% Fetal Bovine Serum. The tumors are injected subcutaneously into the side of BALB/C mice in 75 μL of a suspension containing approximately 10^6 cells/mL tissue culture medium. When the tumors have reached 4.5 to 7 mm in diameter the volume of each individual tumor is calculated by measuring the diameter of the tumor and assuming a spherical tumor. For each individual tumor, a volume of the cytofectin/CAT plasmid complex in saline equivalent to the calculated volume of the tumor is injected into the tumor at a rate of 2 mL/min. After 48 hours, the tumors are collected, frozen, ground up, and extracted with 1.5 mL of extraction buffer as described in Example 3. CAT activity is quantitated as described below. […]

In the case of `CCCCCCCCCCCCCCOCC(C[N+](C)(C)CCO)OCCCCCCCCCCCCCC.[Br-]` (racemic) [DMRIE, 1-propanaminium, N-(2-hydroxyethyl)-N,N-dimethyl-2,3-bis(tetradecyloxy)-bromide, (±)-, reference compound], in the experiment on murine B16 tumor cells, the “CAT activity, cytofectins compared with one another” value is “greatest” and the “CAT expression in tumor cells” value is “significant CAT expression”.
For `CCCCCCCCCCCCCCOCC(C[N+](C)(C)CCNC(=O)NC)OCCCCCCCCCCCCCC.[Br-]` (stereo not drawn) [BMU, β-aminoethyl-DMRIE,Methyl Urea], the “Activity Cos7” value with COS7 monkey kidney cells is listed as “≧”. In experiment [1], the “activity in NP antibody assay compared with naked DNA alone” value (from here on “activity … compared with naked DNA alone”) is “greater activity than naked DNA alone” and the “activity in NP antibody assay, among the compounds tested” value was “particularly high activity”. Also, in experiment [2], the “Activity C2C12” value is “≦”.
For the molecule `CCCCCCCCCCCCOCC(C[N+](C)(CCCN)CCCN)OCCCCCCCCCCCC` (centres unmarked) [BPA-DLRIE], in experiment [1], the “activity … compared with naked DNA alone” value is “greater activity than naked DNA alone” and the “activity in NP antibody assay, among the compounds tested” value is recorded as “particularly high activity”.
On to `CCCCCCCCCCCCCCOCC(C[N+](C)(CCCN)CCCN)OCCCCCCCCCCCCCC` (centres unmarked) [BPA-DMRIE], for which the “CAT activity in subcutaneous melanoma, among the compounds tested” value (shortened to “CAT activity in subcutaneous melanoma”) in the experiment with BF16F10 melanoma tumors is reported as “particularly high activity”. Further, in experiment [1], the “activity … compared with naked DNA alone” value is reported as “greater activity than naked DNA alone” and the “activity in NP antibody assay, among the compounds tested” value is given as “particularly high activity”.
As for `CCCCCCCCCCCCCCOCC(C[N+](C)(C)CCCCNC(=O)NC)OCCCCCCCCCCCCCC.[Br-]` (centres unmarked) [DMU, δ-aminobutyl DMRIE, Methyl Urea], the “Activity C2C12” value in experiment [2] was “≧”.
For the molecule `CCCCCCCCCCCCOCC(C[N+](C)(C)CCCN)OCCCCCCCCCCCC` (centres unmarked) [GAP-DLRIE], in the experiment with murine B16 tumor cells, the “CAT activity, cytofectins compared with one another” value is “nearly as effective as DMRIE; also recorded: significant activity” and the “CAT expression in tumor cells” value is on record as “significant CAT expression”.
For the molecule `CCCCCCCCCCCCCCOCC(C[N+](C)(C)CCCN)OCCCCCCCCCCCCCC` (centres unmarked) [GAP-DMRIE], in the experiment on murine B16 tumor cells, the “CAT activity, cytofectins compared with one another” value is reported as “significant activity” and the “CAT expression in tumor cells” value is on record as “significant CAT expression”.
In the case of `CCCCCCCCCCCCCCOCC(C[N+](C)(C)CCCNC(=O)NC)OCCCCCCCCCCCCCC` (centres unmarked) [GMU, γ-aminopropyl-DMRIE,Methyl Urea], in the experiment with COS7 monkey kidney cells (COS7 cells), the “levels of β-gal activity compared with DMRIE” value is reported as “higher levels of activity than those achieved by DMRIE”. Further, the “Total β-gal expression” value is given as “significantly decreased” in the experiment with COS7 monkey kidney cells (COS7 cells, GMU-DMRIE alone (no DOPE)) and “significantly decreased” in experiment [2] (C2C12 cells, GMU-DMRIE alone (no DOPE)). In addition, in the experiment with COS7 monkey kidney cells (COS7 cells, GMU-DMRIE/DOPE ratio of 75:25), the “total expression of β-gal” value was “highly effective”. The “Activity Cos7” value with COS7 monkey kidney cells is “≧”. Besides, in experiment [2] (C2C12 cells), the “levels of total β-gal activity compared with DMRIE” value was “significantly higher levels of total activity than DMRIE”. Moreover, the “Activity C2C12” value in experiment [2] is given as “≈”.
Turning to `CCCCCCCCCCCCOCC(C[N+](C)(C)CCCNC(=O)NC)OCCCCCCCCCCCC` (centres unmarked) [GMU-DLRIE], the “CAT expression in tumor cells” value in the experiment with murine B16 tumor cells is given as “significant CAT expression”.
Consider `CCCCCCCCCCCCCCOCC(C[N+](C)(C)CCCNC(N)=S)OCCCCCCCCCCCCCC` (centres unmarked) [GTU-DMRIE, DMRIE-γ-thiourea], for which, in the experiment with BF16F10 melanoma tumors, the “CAT activity in subcutaneous melanoma” value is listed as “particularly high activity”.
On to `CCCCCCCCCCCCCCOCC(C[N+](C)(CCCN)CCCCN)OCCCCCCCCCCCCCC` (centres unmarked) [PABA-DMRIE], for which, in experiment [1], the “activity … compared with naked DNA alone” value is listed as “greater activity than naked DNA alone” and the “activity in NP antibody assay, among the compounds tested” value was “particularly high activity”.
As for DMRIE Methyl carbamate [βMC], the “Activity Cos7” value in the experiment with COS7 monkey kidney cells is on record as “≈”. Also, the “Activity C2C12” value in experiment [2] was “≈”.
As for “DMRIE carboxylate (methionine-methyl ester) amide [DOx-Met-OMe]”, in experiment [2], the “Activity C2C12” value is listed as “<”.
“Hydroxybutyl DMRIE Methyl Carbamate [δMC]”: in the experiment with COS7 monkey kidney cells, the “Activity Cos7” value was “≈”. For the same molecule, in experiment [2], the “Activity C2C12” value was “≈”.
Turning to “Hydroxypropyl DMRIE Methyl Carbamate [ΥMC]”, the “Activity Cos7” value in the experiment on COS7 monkey kidney cells is listed as “≈”. Further, in experiment [2], the “Activity C2C12” value is on record as “≈”.
Serine-δ-DMRIE amide [δ-ser-DMRIE]: the “Activity Cos7” value in the experiment on COS7 monkey kidney cells was “≈”. The “Activity C2C12” value in experiment [2] is listed as “≦”.
As to “pGlutamate-histidine-proline-γ-DMRIE amide [TRH-γ-DMRIE]”, in the experiment with COS7 monkey kidney cells, the “Activity Cos7” value is reported as “≈”.
Regarding “γ-aminopropyl-DMRIE, Arginine Methyl Ester Urea [Arg(OMe)-GU-DMRIE]”, in the experiment on BF16F10 melanoma tumors, the “CAT activity in subcutaneous melanoma” value is listed as “particularly high activity”.
For the molecule “γ-aminopropyl-DMRIE, α-arabonosyl thiourea [Ara-TU-DMRIE]”, the “Activity Cos7” value in the experiment on COS7 monkey kidney cells is “≈”. Also, in experiment [1], the “activity … compared with naked DNA alone” value is “greater activity than naked DNA alone”. Also, the “Activity C2C12” value in experiment [2] was “<”.
For “γ-aminopropyl-DMRIE,α-galactosyl thiourea [Gal-TU-DMRIE]” the same measures were “≧”, “greater activity than naked DNA alone” and “≈”.
For “γ-aminopropyl-DMRIE,α-glucosyl thiourea [Glc-TU-DMRIE]” the same measures were “≧”, “greater activity than naked DNA alone” and “≦”.
